Three molecules from paper PMC10107299, “Neutralizing the Impact of the Virulence Factor LecA from Pseudomonas aeruginosa on Human Cells with New Glycomimetic Inhibitors” (Angewandte Chemie (International Ed. in English), 2023) can be followed below.

In data set [1] the test system is plasma protein. Nature of the data set: Plasma protein binding (rapid equilibrium device), murine plasma. The format is in vitro ADME, mouse. Conditions: 1 µM. The protocol: mixer (Eppendorf). Acetonitrile and caffeine were dispensed using a Mantis Formulatrix. Then samples were centrifuged for 20 min at 2.270 x g at 4 °C and the supernatants were transferred to 96-well Greiner V-bottom plates. Peak areas of each compound and of the internal standard were analyzed using the MultiQuant 3.0 software (AB Sciex). Peak areas of the respective compound were normalized to the internal standard peak area and to the respective peak areas at time point 0 min: (C/D)/(A/B) with A: peak area of the compound at time point 0 min, B: peak area of the internal standard at time point 0 min, C: peak area of the compound at the respective time point, D: peak area of the internal standard at the respective time point. […]
Assessment of plasma protein binding
Plasma protein binding was assessed using the rapid equilibrium device (RED) system from ThermoFisher. Compounds were dissolved in DMSO. […]
high plasma protein binding. Compounds were diluted in murine plasma (from CD-1 mice, pooled) or in human plasma (human donors, both genders, pooled) to a final concentration of 1 µM. Dialysis buffer and plasma samples were added to the respective chambers according the manufacturer’s protocol. The RED plate was sealed with a tape and incubated at 37 °C for 2 hours at 800 rpm on an Eppendorf MixMate vortex-mixer. Then samples were withdrawn from the respective chambers. To 25 µL of each dialysis sample, 25 µL of plasma and to 25 µL of plasma sample, 25 µL of dialysis buffer was added. Then 150 µL ice-cold extraction solvent (ACN/H2O (90:10) containing 12.5 ng/mL caffeine as internal standard) was added. Samples were incubated for 30 min on ice. Then samples were centrifuged at 4 °C at 2270 x g for 10 min.
Supernatants were transferred to Greiner V-bottom 96-well plates and sealed with a tape. The […]
percentage of bound compound was calculated as follows:
(1) % free = (concentration buffer chamber / concentration plasma chamber) *100 […]
Samples were analyzed using an Agilent 1290 Infinity II HPLC system coupled to an AB Sciex QTrap 6500plus mass spectrometer. LC conditions were as follows: column: Agilent […]
Zorbax Eclipse Plus C18, 50x2.1 mm, 1.8 µm; temperature: 30 °C; injection volume: 5 µL per […]
sample; flow rate: 700 µL/min. Samples were run under acidic and buffered conditions.
Solvents for acidic conditions: A1: water + 0.1% formic acid; solvent B1: 95% acetonitrile/5% […]
H2O + 0.1% formic acid; solvents for buffered conditions: A2: 95% water + 5% acetonitrile + […]
5 mM ammonium acetate + 40 µL/L acetic acid; B2: 95% acetonitrile + 5% water + 5 mM […]
ammonium acetate + 40 µL/L acetic acid. The same gradient was applied for acidic and […]
buffered conditions: 99% A at 0 min, 99% A until 1 min, 99% - 0% A from 1 min to 4.0 min, […]
0% A until 5.0 min. Mass transitions for controls and compounds are depicted in the following […]

Data set [2] relates to LecA-treated H1299 cells. Nature of the data set: Scratch-wound healing assay. The format is cell-based, human. Conditions: 3.9 μM LecA; for Wound closure after 24 h: 100 μM inhibitor. From the text: The opportunistic bacterium P. aeruginosa depends on favorable circumstances to infect the host, such as a suppressed immunity or wounded skin.[34, 35] Chronic infection of wounds with P. aeruginosa increases the risk of nosocomial spread, are difficult to treat and after systemic dissemination can result in a fatal outcome in patients. In a previous study, we investigated the effect of the fucose‐binding P. aeruginosa lectin LecB on epithelial wound healing.[36] […] Here, we investigated whether LecA also impairs the same physiological process. To this end, H1299 cell monolayers were grown, and after scratching with a pipette tip, wound closure was monitored microscopically (Figure 5a). […] The mode of action of LecA in the wound healing process remains elusive. […] Importantly, when LecA was added to the cells together with L2 (10 μM and 100 μM, respectively), the wound healed at a similar rate to the control in absence of LecA. Remarkably, in presence of 10 μM L2, cell migration was restored to about 70 % compared to the negative control, and the wound closed by 80 % after 24 h of incubation with 100 μM L2 (Figure 5b). […]
using NIS-Element Confocal 4.20 from Nikon and ImageJ 1.52a from Laboratory for Optical and Computational Instrumentation.
Cell proliferation (MTT) assay […]
Subsequently, 10 μL of MTT labelling solution was added to each well and the cells were incubated for another 4 h at 37 °C. […] The next day, the absorbance of the samples was measured at 550 nm using a BioTek microplate reader (BioTek Instruments Inc., Winooski, VT, USA). The data were analyzed using Microsoft Excel and GraphPad Prism […]
2 x 10^5 cells were seeded on 12-well plates and formed a confluent monolayer after 24 h. […] The samples were imaged with an EVOS microscope (PEQLAB by VWR Life Sciences, Avantor Performance Materials Inc., Center Valley, PA, USA) and analyzed with ImageJ and Microsoft Excel. […] Experiment was repeated independently three times (N = 3) and evaluated with two tailed, […]

For data set [3], the system named is H1299 cells. Nature of the data set: Cell proliferation (MTT) cytotoxicity assay. In kind it is cell-based, human. Conditions: 24 h; for Cytotoxicity on H1299 cells: 10–100 μM; for Inhibition of cell proliferation: 500 and 750 μM. How it is done: Additionally, the cytotoxicity of sulfonated ligands K2 and L2 on H1299 cells was evaluated prior to the invasion assay (Figure S12). […]
Cell proliferation (MTT) assay
The MTT assay (MTT Cell Proliferation Kit, Roche Holding AG, Basel, Switzerland) was used to evaluate the cytotoxicity of inhibitors on H1299 cells. 3.5 x 10^4 cells per well were transferred to a 96-well plate with a U-bottom. The cells were centrifuged at 1600 x g for 3 min at room temperature. The cell pellet was resuspended in 100 μL of inhibitor solutions (1–750 µM) and transferred to a 96-well flat-bottomed plate. The cells were incubated for 24 h at 37 °C.
Subsequently, 10 μL of MTT labelling solution was added to each well and the cells were incubated for another 4 h at 37 °C. Afterwards, 100 μL of the kit solubilization reagent were added to each well and the plate was incubated at 37 °C overnight. The next day, the absorbance of the samples was measured at 550 nm using a BioTek microplate reader (BioTek Instruments

For `O=C(CCc1ccc(O[C@@H]2O[C@H](CO)[C@H](O)[C@H](O)[C@H]2O)cc1)Nc1ccc(OCCOc2ccc(NC(=O)CCc3ccc(O[C@@H]4O[C@H](CO)[C@H](O)[C@H](O)[C@H]4O)cc3)cn2)nc1` [Compound H2], the “PPB Mouse” value in data set [1] is reported as 97.6 ± 2.1%.
As to `O=C(CCc1ccc(O[C@@H]2O[C@H](CO)[C@H](O)[C@H](O)[C@H]2O)cc1)Nc1ccc(CCc2ccc(NC(=O)CCc3ccc(O[C@@H]4O[C@H](CO)[C@H](O)[C@H](O)[C@H]4O)cc3)cc2S(=O)(=O)O)c(S(=O)(=O)O)c1` [Compound L2], the “PPB Mouse” value in data set [1] was 14.5 ± 6.8%. In data set [2] (10 μM inhibitor), the “Cell migration / wound closure restored after 24 h” value is “about 70%”. In data set [2], the “Wound closure after 24 h” value is reported as 80%. Further, in data set [3], the “Cytotoxicity on H1299 cells” value is given as “did not exhibit significant toxicity” and the “Inhibition of cell proliferation” value is given as over 50%.
`Cc1ccc(NC(=O)CCc2ccc(O[C@@H]3O[C@H](CO)[C@H](O)[C@H](O)[C@H]3O)cc2)cc1S(=O)(=O)O` [Compound K2]: the “Wound closure after 24 h” value in data set [2] is reported as “about 50%”. In addition, in data set [3], the “Cytotoxicity on H1299 cells” value is “did not exhibit significant toxicity” and the “Inhibition of cell proliferation” value is over 50%.
